Results published in paper PMC10600239, “Selective MCL-1 inhibitor ABBV-467 is efficacious in tumor models but is associated with cardiac troponin increases in patients” (Communications Medicine, 2023).

Legend:
Assay in all cases: Off-target profiling (Supplementary Data 1)
[1] = target: off-target receptors, ion channels, and transporters (Homo sapiens, UniProt P08172)
[2] = target: off-target receptors, ion channels, and transporters (Homo sapiens, UniProt P35367)
[3] = target: off-target receptors, ion channels, and transporters (Homo sapiens, UniProt Q96RR4); conditions: TR-FRET Kinome; Invitrogen A-1167389.7 .005(Subs Conc)
[4] = target: off-target receptors, ion channels, and transporters (Homo sapiens, UniProt O94806); conditions: TR-FRET Kinome; Invitrogen A-1169612.6 .2(Subs Conc)
[5] = target: off-target receptors, ion channels, and transporters (Homo sapiens, UniProt Q14164); conditions: TR-FRET Kinome; Invitrogen A-1167389.7 .003(Subs Conc)
[6] = target: off-target receptors, ion channels, and transporters (Homo sapiens, UniProt P28482); conditions: TR-FRET Kinome; Invitrogen A-1224127.6 .05(Subs Conc)
[7] = target: off-target receptors, ion channels, and transporters (Homo sapiens, UniProt Q06418); conditions: TR-FRET Kinome; Invitrogen A-1169612.6 .05(Subs Conc)
[8] = target: off-target receptors, ion channels, and transporters (Homo sapiens, UniProt P25101)
off-target receptors, ion channels, and transporters (Homo sapiens, UniProt P25101), sequence (P25101 21-427): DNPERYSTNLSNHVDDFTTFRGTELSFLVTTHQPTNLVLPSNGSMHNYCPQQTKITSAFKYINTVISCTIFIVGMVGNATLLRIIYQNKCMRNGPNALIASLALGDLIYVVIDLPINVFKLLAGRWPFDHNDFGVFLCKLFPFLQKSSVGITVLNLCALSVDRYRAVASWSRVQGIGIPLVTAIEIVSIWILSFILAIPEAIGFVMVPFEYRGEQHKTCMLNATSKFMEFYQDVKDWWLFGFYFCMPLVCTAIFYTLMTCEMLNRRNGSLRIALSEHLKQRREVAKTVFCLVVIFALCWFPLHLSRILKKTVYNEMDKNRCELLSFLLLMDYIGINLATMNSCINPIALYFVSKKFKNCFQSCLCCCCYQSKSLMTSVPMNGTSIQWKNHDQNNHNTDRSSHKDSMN

[9] = target: off-target receptors, ion channels, and transporters (Homo sapiens, UniProt Q16288); conditions: TR-FRET Kinome; Invitrogen A-1202211.2 .025(Subs Conc)
off-target receptors, ion channels, and transporters (Homo sapiens, UniProt Q16288), sequence (Q16288 32-839): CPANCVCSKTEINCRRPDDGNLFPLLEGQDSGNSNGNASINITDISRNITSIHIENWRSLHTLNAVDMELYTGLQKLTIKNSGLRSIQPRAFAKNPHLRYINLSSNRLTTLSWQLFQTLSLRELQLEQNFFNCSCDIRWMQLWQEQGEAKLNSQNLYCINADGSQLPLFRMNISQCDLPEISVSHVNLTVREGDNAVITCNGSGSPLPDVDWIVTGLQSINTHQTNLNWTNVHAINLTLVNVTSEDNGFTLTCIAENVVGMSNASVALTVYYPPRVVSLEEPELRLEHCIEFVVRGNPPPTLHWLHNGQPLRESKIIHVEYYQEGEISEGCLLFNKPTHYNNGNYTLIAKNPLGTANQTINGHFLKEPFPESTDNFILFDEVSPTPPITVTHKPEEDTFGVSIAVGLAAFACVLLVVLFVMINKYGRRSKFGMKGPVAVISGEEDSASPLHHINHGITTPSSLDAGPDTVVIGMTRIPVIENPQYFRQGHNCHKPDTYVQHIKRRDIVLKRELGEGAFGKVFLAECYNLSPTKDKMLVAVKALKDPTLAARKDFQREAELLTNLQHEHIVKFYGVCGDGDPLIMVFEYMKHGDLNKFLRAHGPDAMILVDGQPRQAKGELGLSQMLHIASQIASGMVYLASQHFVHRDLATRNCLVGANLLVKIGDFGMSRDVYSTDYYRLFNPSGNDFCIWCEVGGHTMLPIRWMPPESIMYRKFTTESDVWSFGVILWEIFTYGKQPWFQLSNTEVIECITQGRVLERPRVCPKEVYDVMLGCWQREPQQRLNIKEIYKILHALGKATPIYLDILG

[10] = target: off-target receptors, ion channels, and transporters (Homo sapiens, UniProt Q05397); conditions: TR-FRET Kinome; Invitrogen A-1167389.7 .05(Subs Conc)
[11] = target: off-target receptors, ion channels, and transporters (Homo sapiens, UniProt P08581); conditions: TR-FRET Kinome; Invitrogen A-1196581.2 .003(Subs Conc)
off-target receptors, ion channels, and transporters (Homo sapiens, UniProt P08581), sequence (P08581 25-1390): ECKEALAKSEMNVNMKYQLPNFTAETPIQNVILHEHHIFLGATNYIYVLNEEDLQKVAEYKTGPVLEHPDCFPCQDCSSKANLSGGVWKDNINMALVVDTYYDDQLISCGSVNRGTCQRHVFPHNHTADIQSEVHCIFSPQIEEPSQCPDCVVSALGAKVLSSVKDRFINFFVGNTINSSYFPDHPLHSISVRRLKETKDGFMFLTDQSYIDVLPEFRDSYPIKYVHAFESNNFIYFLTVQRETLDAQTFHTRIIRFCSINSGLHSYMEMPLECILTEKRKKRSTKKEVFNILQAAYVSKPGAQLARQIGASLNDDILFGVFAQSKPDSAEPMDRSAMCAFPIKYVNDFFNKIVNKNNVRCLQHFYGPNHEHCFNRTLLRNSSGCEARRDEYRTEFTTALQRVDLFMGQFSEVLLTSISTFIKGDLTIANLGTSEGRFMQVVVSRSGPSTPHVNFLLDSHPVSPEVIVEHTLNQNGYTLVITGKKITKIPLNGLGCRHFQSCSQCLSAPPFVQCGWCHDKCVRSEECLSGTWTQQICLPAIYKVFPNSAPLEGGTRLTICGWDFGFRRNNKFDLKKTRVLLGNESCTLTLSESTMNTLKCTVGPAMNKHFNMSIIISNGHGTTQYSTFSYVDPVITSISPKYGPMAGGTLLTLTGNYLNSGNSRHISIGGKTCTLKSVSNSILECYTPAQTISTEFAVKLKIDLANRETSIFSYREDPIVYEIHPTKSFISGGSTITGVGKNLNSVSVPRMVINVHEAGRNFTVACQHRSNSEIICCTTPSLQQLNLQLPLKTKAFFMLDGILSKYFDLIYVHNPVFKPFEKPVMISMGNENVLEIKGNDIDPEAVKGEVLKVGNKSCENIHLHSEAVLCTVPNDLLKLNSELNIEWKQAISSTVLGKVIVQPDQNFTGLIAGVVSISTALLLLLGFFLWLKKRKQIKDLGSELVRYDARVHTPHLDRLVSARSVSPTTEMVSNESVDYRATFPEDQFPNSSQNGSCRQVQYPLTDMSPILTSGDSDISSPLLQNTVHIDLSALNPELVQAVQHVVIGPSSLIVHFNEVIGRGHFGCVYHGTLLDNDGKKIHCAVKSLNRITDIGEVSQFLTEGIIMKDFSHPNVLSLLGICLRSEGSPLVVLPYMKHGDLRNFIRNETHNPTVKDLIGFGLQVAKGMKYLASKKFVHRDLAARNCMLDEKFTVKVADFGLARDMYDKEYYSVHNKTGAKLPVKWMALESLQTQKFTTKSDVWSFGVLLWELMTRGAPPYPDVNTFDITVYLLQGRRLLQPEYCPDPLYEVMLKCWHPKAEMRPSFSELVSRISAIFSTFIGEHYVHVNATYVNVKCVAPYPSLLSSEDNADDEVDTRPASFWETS

[12] = target: off-target receptors, ion channels, and transporters (Homo sapiens, UniProt P28223)
off-target receptors, ion channels, and transporters (Homo sapiens, UniProt P28223), sequence (P28223 whole entry): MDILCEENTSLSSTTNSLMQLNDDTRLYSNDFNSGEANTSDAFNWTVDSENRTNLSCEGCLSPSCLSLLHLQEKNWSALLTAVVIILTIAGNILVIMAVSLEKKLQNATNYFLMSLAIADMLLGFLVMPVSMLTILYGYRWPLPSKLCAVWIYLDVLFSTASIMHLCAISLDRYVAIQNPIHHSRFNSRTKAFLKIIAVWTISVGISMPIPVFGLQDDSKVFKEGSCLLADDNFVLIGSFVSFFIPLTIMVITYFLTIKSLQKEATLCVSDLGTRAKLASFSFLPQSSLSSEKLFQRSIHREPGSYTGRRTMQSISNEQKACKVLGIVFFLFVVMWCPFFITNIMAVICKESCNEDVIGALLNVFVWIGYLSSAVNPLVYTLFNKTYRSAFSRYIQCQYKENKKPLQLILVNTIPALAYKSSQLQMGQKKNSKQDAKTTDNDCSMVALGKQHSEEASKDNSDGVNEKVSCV

[13] = target: off-target receptors, ion channels, and transporters (Homo sapiens, UniProt Q06187); conditions: TR-FRET Kinome; Invitrogen A-1167389.7 .2(Subs Conc)
[14] = target: off-target receptors, ion channels, and transporters (Homo sapiens, UniProt Q9UHD2); conditions: TR-FRET Kinome; Invitrogen A-1167389.7 .00625(Subs Conc)
[15] = target: off-target receptors, ion channels, and transporters (Homo sapiens, UniProt P24530)
off-target receptors, ion channels, and transporters (Homo sapiens, UniProt P24530), sequence (P24530 27-442): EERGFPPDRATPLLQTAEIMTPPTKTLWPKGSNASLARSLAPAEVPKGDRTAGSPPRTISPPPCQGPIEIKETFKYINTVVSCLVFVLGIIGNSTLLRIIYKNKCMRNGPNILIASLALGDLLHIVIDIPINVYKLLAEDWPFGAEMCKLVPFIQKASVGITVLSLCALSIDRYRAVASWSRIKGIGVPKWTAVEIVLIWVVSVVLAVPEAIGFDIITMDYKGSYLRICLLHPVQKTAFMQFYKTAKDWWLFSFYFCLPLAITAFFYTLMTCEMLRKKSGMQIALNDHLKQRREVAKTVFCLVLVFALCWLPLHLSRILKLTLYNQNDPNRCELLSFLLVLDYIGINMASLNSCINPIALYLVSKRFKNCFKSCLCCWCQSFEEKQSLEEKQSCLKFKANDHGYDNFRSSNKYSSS

[16] = target: off-target receptors, ion channels, and transporters (Homo sapiens, UniProt P42680); conditions: TR-FRET Kinome; SignalChem A-1214384.2 .02(Subs Conc)
[17] = target: off-target receptors, ion channels, and transporters (Homo sapiens, UniProt Q08881); conditions: TR-FRET Kinome; Invitrogen A-1224615.7 .025(Subs Conc)
[18] = target: off-target receptors, ion channels, and transporters (Homo sapiens, UniProt Q12851); conditions: TR-FRET Kinome; Invitrogen A-1169612.6 .04(Subs Conc)
[19] = target: off-target receptors, ion channels, and transporters (Homo sapiens, UniProt Q13043); conditions: TR-FRET Kinome; Invitrogen A-1167389.7 .025(Subs Conc)
[20] = target: off-target receptors, ion channels, and transporters (Homo sapiens, UniProt Q13464); conditions: TR-FRET Kinome; Invitrogen A-1213250.2 .1(Subs Conc)
[21] = target: off-target receptors, ion channels, and transporters (Homo sapiens, UniProt P49336); conditions: TR-FRET Kinome; Invitrogen A-1167389.7 .025(Subs Conc)
[22] = target: off-target receptors, ion channels, and transporters (Homo sapiens, UniProt P06239); conditions: TR-FRET Kinome; Invitrogen A-1167389.7 .1(Subs Conc)
[23] = target: off-target receptors, ion channels, and transporters (Homo sapiens, UniProt P35372)
off-target receptors, ion channels, and transporters (Homo sapiens, UniProt P35372), sequence (P35372 whole entry): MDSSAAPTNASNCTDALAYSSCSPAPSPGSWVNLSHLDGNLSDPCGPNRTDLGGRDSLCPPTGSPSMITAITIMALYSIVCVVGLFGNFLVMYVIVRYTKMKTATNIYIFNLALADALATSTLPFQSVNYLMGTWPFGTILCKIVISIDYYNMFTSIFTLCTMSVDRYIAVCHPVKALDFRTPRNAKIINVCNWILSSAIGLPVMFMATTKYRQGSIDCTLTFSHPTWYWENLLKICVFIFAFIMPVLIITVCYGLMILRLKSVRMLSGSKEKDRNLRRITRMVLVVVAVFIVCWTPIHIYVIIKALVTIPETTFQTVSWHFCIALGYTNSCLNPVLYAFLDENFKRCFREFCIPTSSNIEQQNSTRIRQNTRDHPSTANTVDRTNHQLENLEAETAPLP

[24] = target: off-target receptors, ion channels, and transporters (Homo sapiens, UniProt O75716); conditions: TR-FRET Kinome; Invitrogen A-1213250.2 .0125(Subs Conc)
[25] = target: off-target receptors, ion channels, and transporters (Homo sapiens, UniProt P00533); conditions: TR-FRET Kinome; Invitrogen A-1224127.6 .1(Subs Conc)

off-target receptors, ion channels, and transporters (Homo sapiens, UniProt P08172), sequence (P08172 whole entry): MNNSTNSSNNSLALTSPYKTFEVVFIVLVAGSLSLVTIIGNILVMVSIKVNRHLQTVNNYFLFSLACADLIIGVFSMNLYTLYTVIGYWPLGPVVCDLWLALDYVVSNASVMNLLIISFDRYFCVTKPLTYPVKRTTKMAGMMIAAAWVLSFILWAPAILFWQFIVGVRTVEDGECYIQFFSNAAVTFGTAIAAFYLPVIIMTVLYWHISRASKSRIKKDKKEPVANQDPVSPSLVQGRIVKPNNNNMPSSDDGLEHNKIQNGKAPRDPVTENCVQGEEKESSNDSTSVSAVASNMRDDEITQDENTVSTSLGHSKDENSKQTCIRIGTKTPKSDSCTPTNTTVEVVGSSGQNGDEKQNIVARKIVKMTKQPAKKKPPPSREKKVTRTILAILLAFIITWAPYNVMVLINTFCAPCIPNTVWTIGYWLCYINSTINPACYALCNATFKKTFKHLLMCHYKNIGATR
off-target receptors, ion channels, and transporters (Homo sapiens, UniProt P35367), sequence (P35367 whole entry): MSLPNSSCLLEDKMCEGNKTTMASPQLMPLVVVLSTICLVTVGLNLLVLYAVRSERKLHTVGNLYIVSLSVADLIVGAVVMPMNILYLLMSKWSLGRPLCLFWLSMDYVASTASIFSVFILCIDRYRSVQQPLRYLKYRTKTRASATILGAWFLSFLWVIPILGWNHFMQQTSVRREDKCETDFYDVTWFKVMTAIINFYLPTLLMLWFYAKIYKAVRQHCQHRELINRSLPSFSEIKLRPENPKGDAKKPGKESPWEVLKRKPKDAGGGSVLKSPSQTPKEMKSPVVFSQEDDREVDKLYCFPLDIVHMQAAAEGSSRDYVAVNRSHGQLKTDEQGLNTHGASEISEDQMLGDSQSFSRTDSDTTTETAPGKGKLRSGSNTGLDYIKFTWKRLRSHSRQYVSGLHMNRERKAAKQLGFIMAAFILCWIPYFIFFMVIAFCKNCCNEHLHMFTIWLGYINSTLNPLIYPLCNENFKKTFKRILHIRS

Structure (SMILES): Cc1c(Cl)c2c(Cl)c(C)c1-c1c(-c3ccc(F)cc3)sc3ncnc(c13)O[C@@H](C(=O)O)Cc1cc(ccc1OCc1ccnc(-c3ccc(OC[C@H]4COCCO4)cc3)n1)OC[C@@H](CN1CCN(C)CC1)O2 [ABBV-467]
- M2 CHO Human - EC50 ([1]; Bioprofiling 6pt Ag): > 10 µM
- M2 CHO Human - IC50 ([1]; Bioprofiling 6pt Antag, Carbachol): > 10 µM
- H1 CHO Human - EC50 ([2]; Bioprofiling 6pt Ag): > 10 µM
- H1 CHO Human - IC50 ([2]; Bioprofiling 6pt Antag, Histamine): > 10 µM
- CAMKK2 - IC50 [3]: > 10 µM
- Prkcn - IC50 [4]: > 10 µM
- IKKE - IC50 [5]: > 10 µM
- Erk2 - IC50 [6]: > 10 µM
- TYRO3 - IC50 [7]: > 10 µM
- ETA CHO Human - EC50 ([8]; Bioprofiling 6pt Ag): > 10 µM
- ETA CHO Human - IC50 ([8]; Bioprofiling 6pt Antag, Endothelin-1 (ET-1)): > 10 µM
- TrkC - IC50 [9]: > 10 µM
- TrkC - Ki [9]: >4.65 µM
- FAK - IC50 [10]: > 10 µM
- cMET - IC50 [11]: > 10 µM
- 5-HT2A CHO Human - EC50 ([12]; Bioprofiling 6pt Ag): > 10 µM
- 5-HT2A CHO Human - IC50 ([12]; Bioprofiling 6pt Antag, Serotonin (5-HT)): > 10 µM
- BTK - IC50 [13]: > 10 µM
- TBK1 - IC50 [14]: > 10 µM
- ETB CHO Human - EC50 ([15]; Bioprofiling 6pt Ag): > 10 µM
- ETB CHO Human - IC50 ([15]; Bioprofiling 6pt Antag, BQ-3020): > 10 µM
- TEC - IC50 [16]: > 10 µM
- ITK - IC50 [17]: > 10 µM
- MAP4K2 - IC50 [18]: > 10 µM
- MST1 - IC50 [19]: > 10 µM
- Rock1 - IC50 [20]: > 10 µM
- CDK8/Cyclin C - IC50 [21]: > 10 µM
- Lck - IC50 [22]: > 10 µM
- Opioid mu CHO Human - EC50 ([23]; Bioprofiling 6pt Ag): > 10 µM
- Opioid mu CHO Human - IC50 ([23]; Bioprofiling 6pt Antag, DAMGO): > 10 µM
- STK16 - IC50 [24]: > 10 µM
- EGFR - IC50 [25]: > 10 µM
